Source: patent US20020104106A1, “Non-mammalian transgenic animal model for cellular proliferative diseases” (priority 1999, published 2002)

Tested on: tumor fly model
Experiment: Screening assay: extracts fed to v-myb tumor flies, delay of tumor progression
Type: in vivo, Drosophila melanogaster
Conditions: extract concentration fed to the larva/fly that delayed tumor progression by 20% or more
Method: In the screening methods of the subject invention, a quantity of a candidate agent is generally orally administered to the fly. Following oral administration, the affect of the candidate agent on the metastatic tumors (or appearance thereof) of the fly is determined, typically by comparison with a control (i.e. a transgenic fly to which the candidate agent has not been administered). The affect of the candidate agent is determined by determining whether one or more of the phenotypic characteristics of the neoplastic condition are exacerbated or ameliorated in the test fly as compared to the control fly, where characteristics that are monitored include tumor growth, tumor metastasis, and the like. The candidate agent is generally orally administered to the fly by mixing the agent into the fly nutrient medium, e.g. water, aqueous solution with additional nutrient agents, etc., and placing the medium in the presence of the fly, (either the larva or adult fly, usually the adult fly) such that the fly feeds on the medium. Generally a plurality of assay mixtures are run in parallel with different agent concentrations to obtain a differential response to the various concentrations of candidate agent. Typically, one of these concentrations serves as a negative control, i.e. no compound. […]

CC(C)=CCC/C(C)=C/C=C/C(C)=C/C=C/C(C)=C/C=C/C=C(C)/C=C/C=C(C)/C=C/C=C(\C)CCC=C(C)C [Lycopene]
Positive antitumor activity dose range: .01%-100%
